ChEMBL document CHEMBL5723587, “Data for DCP probe BI-113823” (2024)
Activity calls are given as the source filed them. The calls are words filed in the database; no cut-off is given here.

Columns and labels:
[1] = molecular target: Substance-P receptor (Homo sapiens) (UniProt P25103); assay: Activity against NK1/HU in the Eurofins SafetyScreen44 (BI) by Radioactive Assay; conditions: Compound concentration 10.0 uM
[2] = molecular target: Thyroid hormone receptor alpha (Rattus norvegicus) (UniProt P63059); assay: Activity against THYROID HORM in the Eurofins SafetyScreen44 (BI) by Radioactive Assay; conditions: Homo sapiens; Compound concentration 10.0 uM
[3] = molecular target: D(1A) dopamine receptor (Homo sapiens) (UniProt P21728); assay: Activity against D1/HU in the Eurofins SafetyScreen44 (BI) by Radioactive Assay; conditions: Compound concentration 10.0 uM
[4] = molecular target: Prostaglandin E2 receptor EP4 subtype (Homo sapiens) (UniProt P35408); assay: Activity against EP4/H in the Eurofins SafetyScreen44 (BI) by Radioactive Assay; conditions: Compound concentration 10.0 uM
[5] = molecular target: D(3) dopamine receptor (Homo sapiens) (UniProt P35462); assay: Activity against D3/HU in the Eurofins SafetyScreen44 (BI) by Radioactive Assay; conditions: Compound concentration 10.0 uM
[6] = molecular target: Delta-type opioid receptor (Homo sapiens) (UniProt P41143); assay: Activity against DELTA/HU in the Eurofins SafetyScreen44 (BI) by Radioactive Assay; conditions: Compound concentration 10.0 uM
[7] = molecular target: Glutamate receptor ionotropic, kainate 1 (Rattus norvegicus) (UniProt P22756); assay: Activity against KAINATE/R in the Eurofins SafetyScreen44 (BI) by Radioactive Assay; conditions: Compound concentration 10.0 uM
B1 bradykinin receptor = molecular target: T1, B1 bradykinin receptor (Homo sapiens, UniProt P46663); assay: Measurement of intracellular calcium in HEK-cells expressing hBDKRB1 at up to 1 µM ( The compound antagonizes the effects of the specific B1 agonist [Lys-des-Arg9 ]-Bradykinin (10 nM) in a concentration-dependent manner.); type: functional, cell-based; set-up: compound concentration < 1 uM
T1 sequence (P46663 whole entry): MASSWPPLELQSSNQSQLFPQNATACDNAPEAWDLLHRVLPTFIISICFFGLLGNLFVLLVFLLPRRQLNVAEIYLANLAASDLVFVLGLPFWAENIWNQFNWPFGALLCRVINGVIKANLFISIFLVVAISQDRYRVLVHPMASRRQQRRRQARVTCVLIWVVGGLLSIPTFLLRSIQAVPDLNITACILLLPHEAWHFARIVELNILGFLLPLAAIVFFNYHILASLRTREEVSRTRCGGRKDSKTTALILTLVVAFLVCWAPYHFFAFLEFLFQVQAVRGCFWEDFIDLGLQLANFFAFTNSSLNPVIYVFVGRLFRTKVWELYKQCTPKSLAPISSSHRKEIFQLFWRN

Chain of Substance-P receptor (Homo sapiens) (P25103 whole entry): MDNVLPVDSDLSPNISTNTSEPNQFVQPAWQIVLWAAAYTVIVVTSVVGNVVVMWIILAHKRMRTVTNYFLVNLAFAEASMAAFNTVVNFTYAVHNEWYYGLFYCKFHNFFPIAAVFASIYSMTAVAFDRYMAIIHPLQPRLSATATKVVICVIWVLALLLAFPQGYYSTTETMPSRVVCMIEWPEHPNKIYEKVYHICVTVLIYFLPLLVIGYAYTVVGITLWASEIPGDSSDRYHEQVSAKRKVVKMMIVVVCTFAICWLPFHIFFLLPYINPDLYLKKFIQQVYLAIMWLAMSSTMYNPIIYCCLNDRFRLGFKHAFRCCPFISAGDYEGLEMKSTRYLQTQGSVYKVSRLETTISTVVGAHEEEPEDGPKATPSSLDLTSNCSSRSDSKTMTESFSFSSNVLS
Chain of D(3) dopamine receptor (Homo sapiens) (P35462 whole entry): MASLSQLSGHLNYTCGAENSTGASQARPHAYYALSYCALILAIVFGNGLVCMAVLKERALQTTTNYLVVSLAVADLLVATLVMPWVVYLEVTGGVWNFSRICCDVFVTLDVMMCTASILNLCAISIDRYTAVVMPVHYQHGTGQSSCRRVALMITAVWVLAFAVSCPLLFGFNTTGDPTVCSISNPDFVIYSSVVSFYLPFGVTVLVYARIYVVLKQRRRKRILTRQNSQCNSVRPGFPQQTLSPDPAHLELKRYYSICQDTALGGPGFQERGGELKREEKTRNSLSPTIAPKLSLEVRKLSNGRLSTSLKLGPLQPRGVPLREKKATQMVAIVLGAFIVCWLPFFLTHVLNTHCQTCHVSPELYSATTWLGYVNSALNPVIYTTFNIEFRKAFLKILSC
Chain of Prostaglandin E2 receptor EP4 subtype (Homo sapiens) (P35408 whole entry): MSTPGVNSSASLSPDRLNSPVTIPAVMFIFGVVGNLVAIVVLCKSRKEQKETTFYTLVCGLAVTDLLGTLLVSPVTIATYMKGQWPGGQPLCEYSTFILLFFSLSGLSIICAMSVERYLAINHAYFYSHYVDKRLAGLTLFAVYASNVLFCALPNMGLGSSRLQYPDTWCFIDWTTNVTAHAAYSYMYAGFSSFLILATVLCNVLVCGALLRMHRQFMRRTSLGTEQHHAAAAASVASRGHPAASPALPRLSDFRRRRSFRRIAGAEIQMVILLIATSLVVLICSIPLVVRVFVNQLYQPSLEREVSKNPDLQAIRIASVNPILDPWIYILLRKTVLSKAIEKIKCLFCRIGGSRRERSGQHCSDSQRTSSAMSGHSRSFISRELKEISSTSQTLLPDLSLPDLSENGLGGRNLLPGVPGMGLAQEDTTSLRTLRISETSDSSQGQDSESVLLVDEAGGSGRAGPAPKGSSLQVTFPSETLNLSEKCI
Chain of D(1A) dopamine receptor (Homo sapiens) (P21728 whole entry): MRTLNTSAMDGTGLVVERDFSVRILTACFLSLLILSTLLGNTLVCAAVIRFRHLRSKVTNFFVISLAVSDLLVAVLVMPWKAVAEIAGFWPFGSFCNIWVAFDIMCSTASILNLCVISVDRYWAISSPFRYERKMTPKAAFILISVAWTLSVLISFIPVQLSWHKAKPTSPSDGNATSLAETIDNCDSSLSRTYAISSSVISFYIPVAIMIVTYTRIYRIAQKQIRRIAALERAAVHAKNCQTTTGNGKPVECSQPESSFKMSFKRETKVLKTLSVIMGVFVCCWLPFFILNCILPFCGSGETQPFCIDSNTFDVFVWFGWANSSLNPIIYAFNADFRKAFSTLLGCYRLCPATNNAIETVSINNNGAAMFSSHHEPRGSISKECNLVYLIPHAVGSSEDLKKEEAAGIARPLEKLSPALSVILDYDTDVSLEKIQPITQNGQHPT
Chain of Glutamate receptor ionotropic, kainate 1 (Rattus norvegicus) (P22756 whole entry): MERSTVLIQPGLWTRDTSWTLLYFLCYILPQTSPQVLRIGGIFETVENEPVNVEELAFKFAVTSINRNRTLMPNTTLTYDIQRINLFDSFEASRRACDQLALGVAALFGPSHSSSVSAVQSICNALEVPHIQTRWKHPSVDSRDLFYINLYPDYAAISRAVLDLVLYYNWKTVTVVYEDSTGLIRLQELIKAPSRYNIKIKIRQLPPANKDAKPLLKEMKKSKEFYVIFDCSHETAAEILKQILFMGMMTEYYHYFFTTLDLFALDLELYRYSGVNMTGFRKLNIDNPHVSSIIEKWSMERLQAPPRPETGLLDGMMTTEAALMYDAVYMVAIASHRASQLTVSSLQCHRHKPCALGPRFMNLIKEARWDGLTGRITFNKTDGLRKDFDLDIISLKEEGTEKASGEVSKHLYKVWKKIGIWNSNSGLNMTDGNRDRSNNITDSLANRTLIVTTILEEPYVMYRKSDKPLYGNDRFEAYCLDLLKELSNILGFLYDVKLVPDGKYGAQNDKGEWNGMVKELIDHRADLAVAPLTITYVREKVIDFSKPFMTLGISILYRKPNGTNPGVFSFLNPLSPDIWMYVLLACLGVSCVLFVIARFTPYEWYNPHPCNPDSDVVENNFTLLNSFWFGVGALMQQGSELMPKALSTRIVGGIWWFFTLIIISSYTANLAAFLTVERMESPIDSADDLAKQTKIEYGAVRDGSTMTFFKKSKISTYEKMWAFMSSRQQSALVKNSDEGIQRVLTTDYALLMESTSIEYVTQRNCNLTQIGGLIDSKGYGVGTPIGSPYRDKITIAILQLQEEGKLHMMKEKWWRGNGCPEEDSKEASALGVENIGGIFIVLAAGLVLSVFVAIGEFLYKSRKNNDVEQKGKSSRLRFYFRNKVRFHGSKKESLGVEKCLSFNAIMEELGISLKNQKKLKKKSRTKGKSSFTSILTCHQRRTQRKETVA
Chain of Thyroid hormone receptor alpha (Rattus norvegicus) (P63059 whole entry): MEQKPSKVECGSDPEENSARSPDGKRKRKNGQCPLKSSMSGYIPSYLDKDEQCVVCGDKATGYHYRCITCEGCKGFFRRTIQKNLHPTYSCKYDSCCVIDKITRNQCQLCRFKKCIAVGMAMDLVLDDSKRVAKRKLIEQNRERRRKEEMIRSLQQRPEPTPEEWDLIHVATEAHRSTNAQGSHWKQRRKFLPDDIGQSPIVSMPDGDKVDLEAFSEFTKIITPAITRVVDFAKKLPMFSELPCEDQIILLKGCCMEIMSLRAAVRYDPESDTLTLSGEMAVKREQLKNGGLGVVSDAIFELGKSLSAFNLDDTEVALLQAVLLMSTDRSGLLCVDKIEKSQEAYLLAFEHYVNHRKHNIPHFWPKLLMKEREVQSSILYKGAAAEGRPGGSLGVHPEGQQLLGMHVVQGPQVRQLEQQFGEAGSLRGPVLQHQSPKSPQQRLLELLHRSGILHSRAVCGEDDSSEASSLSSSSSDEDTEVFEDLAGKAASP
Chain of Delta-type opioid receptor (Homo sapiens) (P41143 whole entry): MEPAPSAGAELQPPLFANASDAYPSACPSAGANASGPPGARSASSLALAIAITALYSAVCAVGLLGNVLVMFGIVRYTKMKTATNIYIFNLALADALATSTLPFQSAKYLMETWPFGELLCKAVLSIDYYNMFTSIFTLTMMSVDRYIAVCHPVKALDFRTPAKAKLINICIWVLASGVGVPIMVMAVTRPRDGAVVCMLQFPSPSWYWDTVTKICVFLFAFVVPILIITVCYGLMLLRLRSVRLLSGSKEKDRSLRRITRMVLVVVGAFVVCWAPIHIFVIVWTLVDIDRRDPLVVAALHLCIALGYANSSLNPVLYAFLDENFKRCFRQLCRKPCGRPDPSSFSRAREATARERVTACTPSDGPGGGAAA

Q: For `COc1cc(C)c(S(=O)(=O)N(C)CCOCC(=O)N(C)[C@H]2CCC[C@@H](N3CCN(C)CC3)C2)c(C)c1`, which residual activity [1] is on record?
A: 109%

Q: What about the residual activity [2] of the same compound?
A: 84%

Q: And the residual activity [3]?
A: 97%

Q: And the residual activity [4]?
A: 93%

Q: And the residual activity [5]?
A: 86%

Q: And the residual activity [6]?
A: 86%

Q: And the residual activity [7]?
A: 93%

Q: And the IC50 (B1 bradykinin receptor)?
A: 7 nM (active)
